Experimental findings from patent US20230295212A1 (ROME Therapeutics, Inc., priority 2022, published 2023) are described below.

The target of one experiment is T1, LINE1 reverse transcriptase (Homo sapiens, UniProt O00370).
T1 construct: expressed in transfected cells; host or cells: HeLa Tet-On 3G (Takara, cat no 631183)
T1 sequence (O00370 whole entry, looked up): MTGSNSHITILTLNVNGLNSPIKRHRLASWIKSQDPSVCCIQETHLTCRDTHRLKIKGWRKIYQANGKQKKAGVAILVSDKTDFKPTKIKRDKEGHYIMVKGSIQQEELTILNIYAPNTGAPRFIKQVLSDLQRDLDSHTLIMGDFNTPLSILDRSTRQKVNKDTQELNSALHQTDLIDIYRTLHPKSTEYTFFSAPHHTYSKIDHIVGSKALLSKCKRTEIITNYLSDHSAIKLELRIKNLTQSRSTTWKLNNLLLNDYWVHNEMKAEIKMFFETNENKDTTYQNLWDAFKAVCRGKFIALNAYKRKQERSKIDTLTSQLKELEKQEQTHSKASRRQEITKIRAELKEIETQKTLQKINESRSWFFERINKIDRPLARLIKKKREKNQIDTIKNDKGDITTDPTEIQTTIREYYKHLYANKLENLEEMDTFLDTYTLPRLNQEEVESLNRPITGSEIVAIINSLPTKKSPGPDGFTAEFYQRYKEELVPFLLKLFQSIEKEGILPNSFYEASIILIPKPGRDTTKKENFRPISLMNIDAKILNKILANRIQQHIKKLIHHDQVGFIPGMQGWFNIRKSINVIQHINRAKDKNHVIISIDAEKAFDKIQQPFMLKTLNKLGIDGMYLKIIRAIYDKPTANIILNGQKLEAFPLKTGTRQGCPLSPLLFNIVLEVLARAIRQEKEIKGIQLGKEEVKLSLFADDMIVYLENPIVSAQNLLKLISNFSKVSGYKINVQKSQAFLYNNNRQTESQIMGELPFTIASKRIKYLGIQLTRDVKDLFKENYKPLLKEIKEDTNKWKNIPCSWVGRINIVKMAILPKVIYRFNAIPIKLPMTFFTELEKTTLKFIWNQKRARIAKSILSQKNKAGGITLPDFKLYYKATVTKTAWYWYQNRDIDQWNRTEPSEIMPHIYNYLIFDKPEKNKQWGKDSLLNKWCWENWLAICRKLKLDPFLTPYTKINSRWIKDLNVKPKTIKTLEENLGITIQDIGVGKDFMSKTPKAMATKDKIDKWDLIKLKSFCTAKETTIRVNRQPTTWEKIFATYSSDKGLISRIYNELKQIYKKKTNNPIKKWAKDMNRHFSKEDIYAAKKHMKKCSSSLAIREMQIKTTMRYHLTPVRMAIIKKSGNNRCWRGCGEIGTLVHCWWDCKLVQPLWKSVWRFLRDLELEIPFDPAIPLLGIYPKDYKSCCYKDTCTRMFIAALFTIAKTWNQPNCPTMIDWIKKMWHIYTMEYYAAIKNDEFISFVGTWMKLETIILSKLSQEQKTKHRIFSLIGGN
The experiment can be described thus: Stable artificial-intron Cis LINE1 reporter assay (HeLa Tet-On 3G, Firefly luciferase). Type of experiment: cell-based. As to conditions: HeLa L1 artificial-intron reporter cells, doxycycline 500 ng/mL, 72 h, class symbols. The protocol: Exemplary compounds, were tested for the ability to inhibit LINE1 reverse transcriptase using a stable artificial-intron Cis LINE1 reporter assay. Assay procedures and results are described below.
A stable HeLa Tet-On 3G (Takara, cat no 631183) cell line expressing a bi-directional inducible LINE1 construct was generated as described in Xie, Y. et al. “Cell division promotes efficient retrotransposition in a stable L1 reporter cell line,” Mobile DNA (2013) 4:10. Single cell clones were screened for high Luciferase expression and the highest expression Firefly expressing clone was chosen for compound testing.
Test compounds were serially diluted in DMSO and spotted in 96-well plates. Subsequently, the HeLa Li artificial-intron reporter cells were plated into the compound-containing wells (8,000 cells/well), and the cells were induced for reporter expression with doxycycline (Sigma-Aldrich cat #D9891) at a final concentration of 500 ng/mL. Luminescence was measured 72 h after plating using the Dual-Glo Luciferase Assay System (Promega cat #E2940) following the manufacturer's instructions. The Firefly Luciferase activity was used to report LINE1 activity.
(In general: In a reporter assay the amount or activity of a reporter protein is the signal.)
As usually defined, the IC50 is the concentration that gives 50% inhibition. A lower IC50 goes with greater potency in that assay. For the compound `Cc1cn([C@@H]2O[C@@](CO)(N=[N+]=[N-])[C@@H](O)[C@@H]2F)c(=O)[nH]c1=O` [Compound 178, 1-((2R,3S,4R,5R)-5-azido-3-fluoro-4-hydroxy-5-(hydroxymethyl)tetrahydrofuran-2-yl)-5-methylpyrimidine-2,4(1H,3H)-dione], the IC50 was 50 to 100 nM. On the same count and under the same terms, in the case of `Nc1nc(=O)n([C@@H]2O[C@@](CO)(CCl)[C@@H](O)[C@@H]2O)cc1F` [Compound 73, 4-amino-1-((2R,3S,4S,5R)-5-(chloromethyl)-3,4-dihydroxy-5-(hydroxymethyl)tetrahydrofuran-2-yl)-5-fluoropyrimidin-2(1H)-one] it was at most 50 nM; in that of `CO[C@]1(CO)O[C@@H](n2ccc(N)nc2=O)C[C@@H]1O` [Compound 48, 4-amino-1-((2R,4S,5R)-4-hydroxy-5-(hydroxymethyl)-5-methoxytetrahydrofuran-2-yl)pyrimidin-2(1H)-one], 50 to 100 nM; in that of `Nc1nc(=O)n([C@@H]2OC(CO)(CO)[C@@H](O)[C@@H]2F)cc1F` [Compound 177, 4-amino-5-fluoro-1-((2R,3S,4R)-3-fluoro-4-hydroxy-5,5-bis(hydroxymethyl)tetrahydrofuran-2-yl) pyrimidin-2(1H)-one], above 1000 nM. The same measure, in the same setting: in the case of `Nc1nc(F)nc2c1ncn2[C@H]1C[C@H](O)[C@](CO)(CCl)O1` [Compound 8, (2R,3S,5R)-5-(6-amino-2-fluoro-9H-purin-9-yl)-2-(chloromethyl)-2-(hydroxymethyl)tetrahydrofuran-3-ol] it was 100 to 250 nM; in that of `Nc1nc(=O)n([C@H]2C[C@H](O)[C@](CO)(C(F)(F)F)O2)cc1F` [Compound 66, 4-amino-5-fluoro-1-((2R,4S,5R)-4-hydroxy-5-(hydroxymethyl)-5-(trifluoromethyl)tetrahydrofuran-2-yl)pyrimidin-2(1H)-one], 250 to 1000 nM. Same read-out and setting: for `CC[C@]1(CO)O[C@@H](n2cnc3c(O)nc(N)nc32)C[C@@H]1O` [Compound 115, 2-amino-9-((2R,4S,5R)-5-ethyl-4-hydroxy-5-(hydroxymethyl)tetrahydrofuran-2-yl)-1,9-dihydro-6H-purin-6-one] the value was at most 50 nM; for `Nc1nc2c(ncn2[C@@H]2O[C@@](CO)(CCl)[C@@H](O)[C@@H]2F)c(=O)[nH]1` [Compound 70, 2-amino-9-((2R,3S,4R,5R)-5-(chloromethyl)-3-fluoro-4-hydroxy-5-(hydroxymethyl)-tetrahydrofuran-2-yl)-1,9-dihydro-6H-purin-6-one], above 1000 nM. On to `Nc1ccn([C@@H]2O[C@@](CO)(CCl)[C@@H](O)[C@@H]2O)c(=O)n1` [Compound 114, 4-amino-1-((2R,3S,4S,5R)-5-(chloromethyl)-3,4-dihydroxy-5-(hydroxymethyl)tetrahydrofuran-2-yl)pyrimidin-2(1H)-one], for which the IC50 lay in the range of 100 to 250 nM.

`C#C[C@]1(CO)O[C@@H](n2cnc3c(N)nc(F)nc32)[C@@H](F)[C@@H]1O` [Compound 42, (2R,3R,4S,5R)-5-(6-amino-2-fluoro-9H-purin-9-yl)-2-ethynyl-4-fluoro-2-(hydroxymethyl) tetrahydrofuran-3-ol] registered an IC50 of at most 50 nM. The compound `C=C[C@]1(CO)O[C@@H](n2cc(F)c(N)nc2=O)[C@@H](O)[C@@H]1O` [Compound 75, 4-amino-1-((2R,3S,4S,5R)-3,4-dihydroxy-5-(hydroxymethyl)-5-vinyltetrahydrofuran-2-yl)-5-fluoropyrimidin-2(1H)-one] returned an IC50 of 100 to 250 nM. The same measure, in the same setting: for `[N-]=[N+]=N[C@]1(CO)O[C@@H](c2cc(I)c3c(N)ncnn23)C[C@@H]1O` [Compound 161, (2R,3S,5R)-5-(4-amino-5-iodopyrrolo[2,1-f][1,2,4]triazin-7-yl)-2-azido-2-(hydroxymethyl)tetrahydrofuran-3-ol] the value was 50 to 100 nM. Turning to `[N-]=[N+]=N[C@]1(CO)O[C@@H](c2ccc3c(N)ncnn23)C[C@@H]1O` [Compound 92, (2R,3S,5R)-5-(4-aminopyrrolo[2,1-f][1,2,4]triazin-7-yl)-2-azido-2-(hydroxymethyl)tetrahydrofuran-3-ol], the IC50 was at most 50 nM. Still for that read-out and setting: for `C#C[C@]1(CO)O[C@@H](c2ccc3c(N)ncnn23)C[C@@H]1O` [Compound 37, (2R,3S,5R)-5-(4-aminopyrrolo[2,1-f][1,2,4]triazin-7-yl)-2-ethynyl-2-(hydroxymethyl) tetrahydrofuran-3-ol] the value was at most 50 nM. Take `Nc1nc(=O)n([C@@H]2O[C@](/C=C\F)(CO)[C@@H](O)[C@@H]2F)cc1F` [Compound 123, 4-amino-5-fluoro-1-((2R,3S,4R,5R)-3-fluoro-5-((Z)-2-fluorovinyl)-4-hydroxy-5-(hydroxymethyl)tetrahydrofuran-2-yl)pyrimidin-2(1H)-one]: the IC50 fell in the range of 50 to 100 nM. In the case of `O=c1nc(NO)ccn1[C@@H]1O[C@@](CO)(CCl)[C@@H](O)[C@H]1F` [Compound 28, 1-((2R,3R,4R,5R)-5-(chloromethyl)-3-fluoro-4-hydroxy-5-(hydroxymethyl)tetrahydrofuran-2-yl)-4-(hydroxyamino)pyrimidin-2(1H)-one], the IC50 is above 1000 nM. On the same count and under the same terms, in the case of `CC(C)C(=O)OC[C@@]1(CCl)O[C@@H](n2ccc(N)nc2=O)[C@H](F)[C@@H]1OC(=O)C(C)C` [Compound 24, (2R,3R,4R,5R)-5-(4-amino-2-oxopyrimidin-1(2H)-yl)-2-(chloromethyl)-4-fluoro-2-((isobutyryloxy)methyl) tetrahydrofuran-3-yl isobutyrate] it was 250 to 1000 nM; in that of `Cc1cn([C@H]2C[C@H](O)[C@](CO)(CCl)O2)c(=O)nc1N` [Compound 11, 4-amino-1-((2R,4S,5R)-5-(chloromethyl)-4-hydroxy-5-(hydroxymethyl)tetrahydrofuran-2-yl)-5-methylpyrimidin-2(1H)-one], above 1000 nM; in that of `C#C[C@]1(CO)O[C@@H](n2cnc3c(N)nc(Cl)nc32)[C@@H](F)[C@@H]1O` [Compound 5, (2R,3R,4S,5R)-5-(6-amino-2-chloro-9H-purin-9-yl)-2-ethynyl-4-fluoro-2-(hydroxymethyl)tetrahydrofuran-3-ol], 50 to 100 nM. On the same count and under the same terms, for `Nc1nc(F)nc2c1ncn2[C@@H]1O[C@@](CO)(CF)[C@@H](O)[C@@H]1F` [Compound 84] the value was above 1000 nM; for `C#C[C@]1(CO)O[C@@H](n2ccc(N)nc2=O)[C@@H](F)[C@@H]1O` [Compound 35, 4-amino-1-((2R,3S,4R,5R)-5-ethynyl-3-fluoro-4-hydroxy-5-(hydroxymethyl)tetrahydrofuran-2-yl)pyrimidin-2(1H)-one], at most 50 nM; for `Cc1cn([C@H]2C[C@H](O)[C@](CO)(CCl)O2)c(=O)[nH]c1=O` [Compound 4, 1-((2R,4S,5R)-5-(chloromethyl)-4-hydroxy-5-(hydroxymethyl)tetrahydrofuran-2-yl)-5-methylpyrimidine-2,4(1H,3H)-dione], above 1000 nM. Compound `Nc1ccn([C@H]2C[C@H](O)[C@](CO)(C(F)F)O2)c(=O)n1` [Compound 110, 4-amino-1-((2R,4S,5R)-5-(difluoromethyl)-4-hydroxy-5-(hydroxymethyl)-tetrahydrofuran-2-yl)pyrimidin-2(1H)-one] had an IC50 of 250 to 1000 nM. Take `Nc1nc(=O)n([C@@H]2O[C@@](CO)(CF)[C@@H](O)[C@@H]2F)cc1F` [Compound 85, 4-amino-5-fluoro-1-[(2R,3S,4R,5R)-3-fluoro-5-(fluoromethyl)-4-hydroxy-5-(hydroxymethyl)oxolan-2-yl] pyrimidin-2-one]: the IC50 lay within 50 to 100 nM.

As to `CC[C@]1(CO)O[C@@H](n2ccc(N)nc2=O)[C@@H](F)[C@@H]1O` [Compound 51, 4-amino-1-((2R,3S,4R,5R)-5-ethyl-3-fluoro-4-hydroxy-5-(hydroxymethyl)tetrahydrofuran-2-yl)pyrimidin-2(1H)-one], the IC50 was at most 50 nM. Still for that read-out and setting: in the case of `C#C[C@]1(CO)O[C@@H](n2cnc3c(N)ncnc32)C[C@@H]1O` [Compound 27, (2R,3S,5R)-5-(6-amino-9H-purin-9-yl)-2-ethynyl-2-(hydroxymethyl) tetrahydrofuran-3-ol] it was at most 50 nM.

Staying with this experiment, now noted: HeLa L1 artificial-intron reporter cells, doxycycline 500 ng/mL, 72 h, numeric bounds.
The compound `CO[C@H]1C[C@H](n2ccc(N)nc2=O)O[C@@]1(CO)CCl` [Compound 54, 4-amino-1-[(2R,4S,5R)-5-(chloromethyl)-5-(hydroxymethyl)-4-methoxyoxolan-2-yl]-3,4-dihydropyrimidin-2-one] showed an IC50 above 30000 nM. For `NC(=O)[C@]1(CO)O[C@@H](n2cc(F)c(N)nc2=O)[C@@H](F)[C@@H]1O` [Compound 138, (2R,3R,4S,5R)-5-(4-amino-5-fluoro-2-oxopyrimidin-1-yl)-4-fluoro-3-hydroxy-2-(hydroxymethyl)oxolane-2-carboxamide], the IC50 was above 30000 nM.

In the case of `O=c1ccn([C@H]2C[C@H](O)[C@](CO)(CCl)O2)c(=O)[nH]1` [Compound 34, 1-((2R,4S,5R)-5-(chloromethyl)-4-hydroxy-5-(hydroxymethyl)tetrahydrofuran-2-yl)pyrimidine-2,4(1H,3H)-dione], the IC50 is above 30000 nM. `CC(C)C(=O)OC[C@@]1(CCl)O[C@@H](n2ncc(N)nc2=O)C[C@@H]1OC(=O)C(C)C` [Compound 174, (2R,3S,5R)-5-(5-amino-3-oxo-1,2,4-triazin-2(3H)-yl)-2-(chloromethyl)-2-((isobutyryloxy)methyl)tetrahydrofuran-3-yl isobutyrate] came in with an IC50 above 30000 nM.
